Where only a bound is given, the exact number is not on record here.

One data set relates to dog. Conditions: active ingredient; cited from earlier work.
The next data set relates to cat. Conditions: active ingredient; cited from earlier work.
The test system of the next data set is rat. The conditions noted are these: active ingredient; cited from earlier work.
The next data set relates to mouse. Conditions: active ingredient; cited from earlier work.
Another data set has as its system infesting murine species. In kind it is in vivo. The conditions noted are these: same amount of anticoagulant.
The conditions of data set [1]: cited from earlier work.
The conditions of data set [2]: WHO, 1995, cited from earlier work.
The next data set relates to Rattus norvegicus. Conditions: young prepubertal; females of Rattus norvegicus; cited from earlier work.
The next data set deals with Mus musculus. Conditions: both genders and all ages of the Mus musculus; cited from earlier work.
The subject of a further data set is murine population. Conditions: in vivo; cited from earlier work.
Where [3] appears, read: liver and kidney, two-phase course.

As for `O=c1oc2ccccc2c(O)c1C1CC(c2ccc(-c3ccc(Br)cc3)cc2)Cc2ccccc21` (stereo not drawn) [BRODIFACOUM, brodifacoum], the “a.p. LD50” value in the data set with dog is 0.25 to 3.6 mg/kg; with cat it was 25 mg/kg; in the data set on rat it was 0.4 mg/kg; with mouse, 0.4 mg/kg.

Regarding `O=c1oc2ccccc2c(O)c1C(CC(O)c1ccc(-c2ccc(Br)cc2)cc1)c1ccccc1` (stereo not drawn) [BROMADIOLON, bromadiolon], the “a.p. LD50” value is on record as more than 10.0 mg/kg in the data set with dog, more than 25 mg/kg in the data set on cat, 1.125 mg/kg with rat and 1.75 mg/kg with mouse. Moreover, the “disinfesting action with respect to that of brodifacoum” value with infesting murine species is “inferior”.

For the compound `O=c1oc2ccccc2c(O)c1C1CC(c2ccc(-c3ccccc3)cc2)Cc2ccccc21` (stereo not drawn) [DIPHENACOUM, diphenacoum], the “a.p. LD50” value in the data set with dog was more than 50.0 mg/kg; in the data set on cat, more than 100 mg/kg; in the data set on rat, 1.8 mg/kg; in the data set on mouse it was 0.8 mg/kg. For the same compound, the half-life in man in data set [1] is listed as 11.5 days. The “disinfesting action with respect to that of brodifacoum” value with infesting murine species is reported as “inferior”. The “elimination from both liver and kidney, rather rapid initial phase” value in data set [2] (setting [3]) was 3 days. Also, the “elimination from both liver and kidney, second, much slower, phase” value in data set [2] (setting [3]) is 118 to 120 days. Moreover, in data set [2] (pancreas), the “half-life in the pancreas” value is 182 days.

In the case of `OCC(O)CCl` (stereo not drawn) [α-chlorohydrin], the activity as chemosterilant entry with Rattus norvegicus and with Mus musculus was “not active” throughout. Moreover, the “eliminating of the treated murine population” value in the data set on murine population is “up to 85%”.

The values above are taken from EP2090164B1, “A rodenticide bait based on a synergetic association of anticoagulant active ingredients” (priority 2008, dated 2009).
